In patent EP2402322A1, “1,2,3,4-tetrahydroisoquinoline derivative and its use as orexin receptor antagonist” (Actelion Pharmaceuticals Ltd., priority 2010, dated 2012):
Where two headings read alike, the source gives them in different places.

Assays:
rat [1] = conditions: cited from earlier work
[2] = rat; cited from earlier work
rat [3] = conditions: animal model of conditioned fear; cited from earlier work
[4] = Measurement of brain and systemic concentration after oral administration; format: in vivo, male wistar rats; conditions: rat; for concentration at 3 h: 3 h after oral administration (100 mg/kg), n = 3, male wistar rats, 100% PEG 400; for capacity to cross the blood-brain barrier: summary statement
Method: The compounds are formulated in 100% PEG 400. Samples are collected in the same animal at the same time point (+/- 5 min). Blood is sampled from the vena cava caudalis into containers with EDTA as anticoagulant and centrifuged to yield plasma. Brain is sampled after cardiac perfusion of 10 mL NaCl 0.9% and homogenized into one volume of cold phosphate buffer (pH 7.4). All samples are extracted with MeOH and analyzed by LC-MS/MS. Concentrations are determined with the help of calibration curves.

human orexin-1 receptor = molecular target: T1, human orexin-1 receptor (Homo sapiens, UniProt O43613); test: Intracellular calcium measurements (FLIPR), CHO cells, 3 nM orexin-A as agonist; format: cell-based
T1 construct: expressed in transfected cells; host or cells: CHO cells (G418 selection)
T1 sequence (O43613 1-425): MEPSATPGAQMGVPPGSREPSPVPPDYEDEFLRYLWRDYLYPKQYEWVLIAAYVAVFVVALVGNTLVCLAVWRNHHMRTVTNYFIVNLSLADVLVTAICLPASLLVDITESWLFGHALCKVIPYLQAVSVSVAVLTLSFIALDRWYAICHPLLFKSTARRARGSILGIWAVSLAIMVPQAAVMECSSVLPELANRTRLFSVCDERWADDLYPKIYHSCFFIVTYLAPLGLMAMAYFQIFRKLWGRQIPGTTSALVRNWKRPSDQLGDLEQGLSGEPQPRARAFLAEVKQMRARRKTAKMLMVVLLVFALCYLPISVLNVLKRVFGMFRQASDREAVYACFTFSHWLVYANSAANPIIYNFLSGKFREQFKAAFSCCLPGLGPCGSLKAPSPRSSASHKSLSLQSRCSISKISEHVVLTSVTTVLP
Method: Chinese hamster ovary (CHO) cells expressing the human orexin-1 receptor and the human orexin-2 receptor, respectively, are grown in culture medium (Ham F-12 with L-Glutamine) containing 300 µg/ml G418, 100 U/ml penicillin, 100 µg/ml streptomycin and 10 % heat inactivated fetal calf serum (FCS). The cells are seeded at 20'000 cells / well into 384-well black clear bottom sterile plates (Greiner). The seeded plates are incubated overnight at 37°C in 5% CO2.
Human orexin-A as an agonist is prepared as 1 mM stock solution in MeOH: water (1:1), diluted in HBSS containing 0.1 % bovine serum albumin (BSA), NaHCO3: 0.375g/l and 20 mM HEPES for use in the assay at a final concentration of 3 nM. […]
Within the Fluorescent Imaging Plate Reader (FLIPR Tetra, Molecular Devices), antagonists are added to the plate in a volume of 10 µl/well, incubated for 10 min and finally 10 µl/well of agonist is added. Fluorescence is measured for each well at 1 second intervals, and the height of each fluorescence peak is compared to the height of the fluorescence peak induced by 3 nM orexin-A with vehicle in place of antagonist. […] The calculated IC50 values may fluctuate depending on the daily cellular assay performance. […]

Male Sprague Dawley rats = test: Acquisition of morphine induced locomotor sensitization; format: in vivo; conditions: 300 mg/kg p.o. 2 h before each morphine injection (10 mg/kg i.p.), 4 pairings; Figure 1
From the text: Method: Although, in essence, locomotor sensitization is a non-associative learning process, the context plays a major role in the development and expression of locomotor sensitization. Thus, drug injections are usually administered intermittently in a context different from the home cage, such as an open field, where locomotor activity can be quantitatively measured. Drugs are regularly administered in high concentrations and via routes of administration with a fast onset of action (such as intraperitoneal or intravenous injections). In order to induce robust locomotor sensitization drugs are administered typically once a day over a period of several days. Once established in such a way, locomotor sensitization can be observed in response to a new drug challenge over a period of up to several months.
Method: Male Sprague Dawley rats are injected with morphine (10 mg/kg i.p.) and placed immediately afterwards in an open field (45 x 40 x 33 cm) for 45 min. Total distance moved (TDM) of the animal is recorded automatically via video-tracking. This procedure is repeated 4 times, every 2nd day, so that each animal received a total number of 4 pairings of morphine injection within the context of the open field.

Wistar rats = test: EEG, EMG and behavioural indices of alertness recorded by radiotelemetry (absence of sleep-promoting effects); format: in vivo
Method: EEG and EMG signals were measured by telemetry using TL11 M2-F20-EET miniature radiotelemetric implants (Data Science Int.) with two pairs of differential leads.
Surgical implantation was performed under general anesthesia with Ketamin/Xylazln, for cranial placement of one differential pair of EEG electrodes and one pair of EMG leads inserted in either side of the muscles of the neck. After surgery, rats recovered in a thermoregulated chamber and received analgesic treatment with subcutaneous buprenorphine twice a day for 2 d. They were then housed individually and allowed to recover for a minimum of 2 weeks. Thereafter, rats—in their home cage—were placed in a ventilate sound-attenuating box, on a 12-h light / 12-h dark cycle, for acclimatization before continuous EEG / EMG recordings started. The telemetric technology that we used in this study allows accurate and stress-free acquisition of biosignals in rats placed In their familiar home cage environment, with no recording leads restricting their movements. Variables analyzed included four different stages of vigilance and sleep, spontaneous activity in the home cage and body temperature. Sleep and wake stages were evaluated using a rodent scoring software (Somnologica Science) directly processing electrical biosignals on 10 s contiguous epochs. The scoring is based on frequency estimation for EEG and amplitude discrimination for EMG and locomotor activity. Using these measurements, the software determines the probability that all components within each epoch best represent active waking (AW), quiet waking (QW), non-REM-sleep (NREM) or REM-sleep (REM). The percentage of total time spent in AW, QW. NREM- and REM-sleep was calculated per 12 h light or dark period. The latency to the onset of the first significant NREM- and REM-sleep episodes and the frequency and duration of those episodes were also calculated. […] All variables were subsequently recorded for 12 h following administration of the orexin receptor antagonist.

F344 rats = test: Fear-potentiated startle paradigm; format: in vivo; conditions: 300 mg/kg oral gavage, 1 h before test, n=16 F344 rats; Figure 2
From the text: The fear-potentiated startle (FPS) paradigm is a model of conditioned fear in rodents that relates to emotional states of fear and anxiety. Rats can be trained to associate an initially neutral, soon-to-be conditioned stimulus (CS: e.g. light) with an aversive, unconditioned stimulus (US; e.g. foot shook). When tested after training for their startle reflex response to brief (ms) noise bursts in the absence vs. the presence of the CS (e.g. light), rats generally show greater startle amplitudes during the presence of the CS which now serves as a predictor of shock. […] This model translates to humans where a similar training procedure can be implemented and a FPS response can also be evoked in the presence of a shock predicting cue. […] The current paradigm represents a translational animal model that is predictive of anxiolytic activity of a drug.
Method: Sixteen adult male F344 rats were trained for two consecutive days (conditioning phase) to associate a light-stimulus with a foot shock (0.4 mA). On the following day they were tested for their response to startle eliciting noise stimuli which were delivered randomly under light (cue) or dark (no cue) conditions. […] Average startle responses to noise stimuli of 90, 100 and 110dB intensity under light and dark conditions during the test day were measured and electrically transduced into a millivolt signal. […]

human orexin-2 receptor = molecular target: T2, human orexin-2 receptor (Homo sapiens, UniProt O43614); test: Intracellular calcium measurements (FLIPR), CHO cells, 3 nM orexin-A as agonist; format: cell-based; conditions: geometric mean; antagonism of 3 nM orexin-A
T2 construct: expressed in transfected cells; host or cells: CHO cells (G418 selection)
T2 sequence (O43614 1-444): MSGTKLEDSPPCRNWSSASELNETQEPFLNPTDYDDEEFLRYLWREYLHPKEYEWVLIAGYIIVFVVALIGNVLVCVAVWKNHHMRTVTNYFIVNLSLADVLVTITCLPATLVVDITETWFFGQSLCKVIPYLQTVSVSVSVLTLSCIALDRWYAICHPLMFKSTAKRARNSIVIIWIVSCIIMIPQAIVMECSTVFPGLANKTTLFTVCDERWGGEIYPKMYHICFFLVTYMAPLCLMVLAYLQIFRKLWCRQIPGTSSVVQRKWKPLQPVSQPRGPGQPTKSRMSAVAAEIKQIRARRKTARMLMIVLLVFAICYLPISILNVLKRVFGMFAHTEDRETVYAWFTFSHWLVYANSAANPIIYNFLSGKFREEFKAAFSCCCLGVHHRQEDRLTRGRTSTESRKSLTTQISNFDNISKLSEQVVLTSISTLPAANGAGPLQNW
Method: Fluorescence is measured for each well at 1 second intervals, and the height of each fluorescence peak is compared to the height of the fluorescence peak induced by 3 nM orexin-A with vehicle in place of antagonist. […] Optimized conditions were achieved by adjustment of pipetting speed and cell splitting regime. The calculated IC50 values may fluctuate depending on the daily cellular assay performance. Fluctuations of this kind are known to those skilled in the art.

[5] = brain, read-out: concentration in brain [B]
[6] = plasma, read-out: concentration in plasma [P]
[7] = 300 mg/kg po, Wistar rats, 12 h following administration

Row | Compound | alertness (active wake and locomotion) (rat [1]) | time spent in both REM and NREM sleep (rat [1]) | crossing of the blood-brain barrier [2] | systemic bioavailability [2] | activity in the rat fear potentiated startle paradigm (rat [3]) | concentration at 3 h [4, 5] | concentration at 3 h [4, 6] | capacity to cross the blood-brain barrier [4] | IC50 (human orexin-1 receptor) | acquisition of locomotor sensitization to morphine (total distance moved) (Male Sprague Dawley rats) | effect on NREM sleep compared to vehicle controls (Wistar rats; [7]) | effect on REM sleep compared to vehicle controls (Wistar rats; [7]) | effect on active wake compared to vehicle controls (Wistar rats; [7]) | effect on home cage activity compared to vehicle controls (Wistar rats; [7]) | effect in a model relevant to sleep induction (Wistar rats; at relevant dose, summary statement) | fear-potentiated startle response under light (cue) conditions as compared to vehicle (F344 rats) | IC50 (human orexin-1 receptor; geometric mean, antagonism of 3 nM orexin-A, read-out: IC50 value on the orexin-1 receptor) | IC50 (human orexin-2 receptor)
1 | CNC(=O)[C@@H](c1ccccc1)N1CCc2cc(OC)c(OC)cc2[C@@H]1CCc1ccc(C(F)(F)F)cc1 [(2R)-2-{(1S)-6,7-dimethoxy-1-[2-(4-trifluoromethyl-phenyl)-ethyl]-3,4-dihydro-1H-isoquinolin-2-yl}-N-methyl-2-phenyl-acetamide] | decrease alertness | dose-dependently increase | cross the blood-brain barrier | good | active | – | – | – | – | – | – | – | – | – | – | – | – | –
2 | COc1ccc(C[C@H]2c3cc(OC)c(OC)cc3CCN2[C@@H](C(=O)NC(C)C)c2ccccc2)cc1OC [COMPOUND, (R)-2-[(S)-1-(3,4-dimethoxy-benzyl)-6,7-dimethoxy-3,4-dihydro-1H-isoquinolin-2-yl]-N-isopropyl-2-phenyl-acetamide] | – | – | – | – | – | 880 ng/g | 1460 ng/mL | crossed the blood-brain barrier | 27 nM | significantly reduced | -2% | +1% | -4% | -3% | no effect | significantly reduced | – | –
3 | CCCCNC(=O)[C@@H](c1ccccc1)N1CCc2cc(OC)c(OC)cc2[C@@H]1Cc1ccc(OC)c(OC)c1 [Reference Compound 1, (R)-2-[(S)-1-(3,4-Dimethoxy-benzyl)-6,7-dimethoxy-3,4-dihydro-1H-isoquinolin-2-yl]-N-butyl-2-phenyl-acetamide, reference compound] | – | – | – | – | – | 530 ng/g | 850 ng/mL | only moderate capacity | – | – | – | – | – | – | – | no effect | 12 nM | > 300 nM
